Results on one compound are retold here after US20100247461A1, “ANTI-INFLAMMATORY COMPLEXES” (Signum Biosciences, Inc., priority 2009, published 2010).

The subject of one data set is neutrophils. The data set is described as follows: Inhibition of oxidative burst from neutrophils (fMLP-induced superoxide release). Type of data set: cell-based. The settings on record: Neutrophil, reduction of superoxide formation, fMLP 0.2 μM, 0 to 100 μM compound; read-out: ED50 Respiratory Burst. As to the method:
During inflammation, neutrophils produce and release superoxide ions, otherwise known as oxidative burst response, causing cytotoxicity. […] The superoxide release assay is based on published protocols (Goldstein et al. (1975). J. Clin. Invest. 56(5): 1155-63). Briefly, cells were pre-incubated for 10 min at 37° C. with a mixture of cytochrome c (75 μM final concentration), cytochalasin B (5 μg/ml) with or without superoxide dismutase (SOD) (10 μg/ml) and with or without AFC, AFC-Calcium complex, and AFC-Strontium complex (ranging from 0 to 100 μM). To initiate O2^− release, fMLP (0.2 μM) was added the cells are incubated for 10 min at 37° C. Samples were then placed on ice for 5 min and subsequently centrifuged at 3,000 rpm at 4° C. The supernatant was then analyzed by spectrophotometric measurement at 550 and 556.5 nm. The ED50 values for the reduction of superoxide formation, obtained with AFC, AFC-Calcium complex, and AFC-Strontium complex are depicted in Table 2.

Data set [1] concerns mouse skin reepithelialization. Description: Mouse wound healing model - skin reepithelialization. It counts as in vivo. The text has this: The healing of wounded skin is mediated by epidermal reepithelialization that requires keratinocyte migration. Glucocorticoids are known to inhibit wound healing (Ehrlich et al., Proc Soc Exp Biol Med, 1971, 137: 936-938; Leibovich et al., Am J Pathol, 1975, 78, 71-100). […] The methods for studying mouse skin reepithelialization using both partial and full thickness mouse wound healing models have been described elsewhere (Kim et al. Wound Repair Regen, 2001, 9: 386-390). In brief, for partial thickness wounds, a 3 mm-diameter circle of epidermis is removed from the ventral auricle. The resulting wound is cleansed and dressed with an occlusive polyurethane film. The mouse ears are excised on days 3, 5, 8, and 11 post-operation and fixed in 10% buffered formalin. Following day 8 post-operation, sampling of treated mice is performed to determine completion of healing. For full thickness wounds, mice heads are shaved and depilated prior to excising the skin. The cleaned and dressed wounds are harvested and fixed at days 3, 5, 8 and 10 and fixed in 10% buffered formalin.

For `CC(=O)N[C@@H](CSC/C=C(\C)CC/C=C(\C)CCC=C(C)C)C(=O)O` [AFC, N-acetyl-S-farnesyl-L-cysteine, reference compound], in the data set with neutrophils, the EC50 was determined as 43.3 µM. In data set [1], the “effect on mouse skin reepithelialization of wounds” value is on record as “no effects”.
